Data on two compounds can be found in patent US20090264292A1, “HERBICIDAL COMPOSITION” (ISHIHARA SANGYO KAISHA, LTD., priority 2005, published 2009).

Molecules are shown by their SMILES.

Holding throughout (type): in vivo
Assay [1] relates to crabgrass (Digitaria sanguinalis L.). As to the kind of experiment: Test Example 1: pot test, foliar application, crabgrass. The following applies: 3.6 leaf stage, 21st day after application, read-out: Crabgrass Growth inhibition rate (%) Observed. As for the experimental part:
(§1) Upland field soil was put into a 1/1,000,000 ha pot, and seeds of various plants were sown. Then, when the plants reached the prescribed leaf stages ((1) 3.6 leaf stage of crabgrass (Digitaria sanguinalis L.), and (2), 2.8 leaf stage of velvetleaf (Abutilon theophrasti MEDIC.)), a prescribed amount of the herbicidal composition was diluted with water corresponding to 300 L/ha, and foliar application was carried out by means of a small size spray. On the 21st day after the application, the state of growth of each plant was visually observed, and the growth inhibition rate (%) evaluated in accordance with the following evaluation standard (observed value) and the growth inhibition rate (%) calculated by the above-mentioned Colby method (expected value) are shown in Tables 1 and 2 .
(§2) Growth inhibition rate (%)=0% (equivalent to the non-treated area) to 100% (complete kill)

In assay [2] the test system is velvetleaf (Abutilon theophrasti MEDIC.). As to the kind of experiment: Test Example 1: pot test, foliar application, velvetleaf. The conditions noted are these: 2.8 leaf stage, 21st day after application, read-out: Velvetleaf Growth inhibition rate (%) Observed. As for the experimental part: as §1, §2
Assay [3] shares this test system. As to the kind of experiment: Test Example 2: pot test, foliar application, velvetleaf. The conditions noted are these: 2.9 leaf stage, 21st day after application, read-out: Velvetleaf Growth inhibition rate (%) Observed. As for the experimental part: as §2
Upland field soil was put into a 1/1,000,000 ha pot, and seeds of velvetleaf (Abutilon theophrasti MEDIC.) were sown. Then, when velvetleaf reached 2.9 leaf stage, a prescribed amount of the herbicidal composition was diluted with water corresponding to 300 L/ha, and foliar application was carried out by means of a small size spray.
On the 21st day after the application, the state of growth of velvetleaf was visually observed and evaluated in the same manner as in the above Test Example 1.

Assay [4] has the same test system. Nature of the assay: Test Example 3: pot test, foliar application, velvetleaf. The following applies: 2.3 to 2.5 leaf stage, 14th day after application, read-out: Velvetleaf Growth inhibition rate (%) Observed. As for the experimental part: as §2
Upland field soil was put into a 1/1,000,000 ha pot, and seeds of velvetleaf (Abutilon theophrasti MEDIC.) were sown. Then, when velvetleaf reached 2.3 to 2.5 leaf stage, a prescribed amount of the herbicidal composition was diluted with water corresponding to 300 L/ha, and foliar application was carried out by means of a small size spray.
On the 14th day after the application, the state of growth of velvetleaf was visually observed and evaluated in the same manner as in the above Test Example 1.

In the case of `COc1cc(OC)nc(NC(=O)NS(=O)(=O)c2ncccc2C(=O)N(C)C)n1` [Compound A-1, 2-(4,6-dimethoxypyrimidin-2-ylcarbamoylsulfamoyl)-N,N-dimethylnicotinamide], the values for the inhibition at 25 g/ha in assay [1] (25 g/ha) and in assay [3] (25 g/ha) were 53% and 38%, respectively. In addition, in assay [2] (50 g/ha), the inhibition (usually the percentage by which the read-out fell short of the control) at 50 g/ha amounted to 60%. Besides, the inhibition at 5 g/ha in assay [4] (5 g/ha) worked out at 5%. In addition, in assay [4] (10 g/ha), the inhibition at 10 g/ha worked out at 8%. In addition, the inhibition at 15 g/ha in assay [4] (15 g/ha) is 12%.
For `CCNc1nc(Cl)nc(NC(C)(C)C)n1` [Compound B-1, N^2-tert-butyl-6-chloro-N^4-ethyl-1,3,5-triazine-2,4-diamine], the results for the inhibition at 250 g/ha in assay [1] (250 g/ha) and in assay [2] (250 g/ha) were 5% and 57%, respectively. The inhibition at 500 g/ha in assay [1] (500 g/ha) was 8%; in assay [2] (500 g/ha), 58%; in assay [3] (500 g/ha), 47%. For the same compound, in assay [4] (1000 g/ha), the inhibition at 1000 g/ha was found to be 37%. Moreover, the inhibition at 1500 g/ha in assay [4] (1500 g/ha) was 43%. The inhibition at 2000 g/ha in assay [4] (2000 g/ha) amounted to 43%.
